Results reported in patent publication US20220387407A1 (priority 2021, published 2022).
Marks after values point to notes of the source that are not given here.

Columns and labels:
conscious rats = system: conscious rats; parameters: species or system Sprague-Dawley rats; conditions: rat, in vivo
freely-moving rats [1] = test: Tissue O2 saturation (SpO2) analysis after morphine in freely-moving rats; conditions: for Cumulative change in sPO2: Post-drug, % change from morphine: 15 min post-morphine value as pre-value
freely-moving rats [2] = test: Blood pressure and heart rate measurement after morphine in freely-moving rats; conditions: for DBP, mmHg: Post-drug, % change from Pre (cumulative) / HR/MAP, mmHg/beats/min: Post-drug, % change from Pre (cumulative) / Heart rate (HR), beats/min: Post-drug, % change from Pre (cumulative) / MAP, mmHg: Post-drug, % change from Pre (cumulative) / SBP, MmHg: Post-drug % change from Pre (cumulative): 15-30 min post-morphine; for DBP, mmHg: Post-drug, % change from morphine (cumulative) / HR/MAP, mmHg/beats/min: Post-drug, % change from morphine (cumulative) / Heart rate (HR), beats/min: Post-drug % change from morphine (cumulative) / MAP, mmHg: Post-drug, % change from morphine (cumulative) / SBP, MmHg: Post-drug, % change from morphine (cumulative): final 15 min morphine value as pre-value
[3] = system: isoflurane-anesthetized rats; conditions: rat, in vivo
freely-moving rats [4] = test: Arterial blood gases, pH and A-a gradient after morphine in freely-moving rats
[5] = Tempol 60 mg/kg IV 15 min after morphine 10 mg/kg IV
[6] = Tempol 100 mg/kg IV 15 min after morphine 10 mg/kg IV
[7] = Tempol 60 mg/kg IV after morphine 10 mg/kg IV, FIG. 14

## CC1(C)CC(O)CC(C)(C)N1[O] [Tempol, 4-hydroxy-2,2,6,6-tetramethylpiperidine-N-oxyl]
Conscious rats
  tail-flick latencies, effect of Tempol alone: no effects
freely-moving rats [1]; [5]
  Cumulative change in sPO2: Post-drug, % change from morphine: +5.0 ± 0.6*^,† %
freely-moving rats [1]; Tempol 60 mg/kg IV 15 min after morphine 10 mg/kg IV, FIG. 17
  SpO2, effect of Tempol after morphine: minor short-lived rise
freely-moving rats [1]; [6]
  Cumulative change in sPO2: Post-drug, % change from morphine: +12.4 ± 2.0*^,† %
freely-moving rats [1]; Tempol 100 mg/kg IV 15 min after morphine 10 mg/kg IV, FIG. 17
  negative effects of morphine on tissue oxygenation (SpO2), effect of Tempol: prompt and sustained reversal
freely-moving rats [2]; [5]
  DBP, mmHg: Post-drug, % change from Pre (cumulative): −16.7 ± 1.7 %
  HR/MAP, mmHg/beats/min: Post-drug, % change from Pre (cumulative): +19.2 ± 12.7 %
  Heart rate (HR), beats/min: Post-drug, % change from Pre (cumulative): +1.8 ± 7.1 %
  MAP, mmHg: Post-drug, % change from Pre (cumulative): −13.7 ± 1.7 %
  SBP, MmHg: Post-drug % change from Pre (cumulative): −9.5 ± 1.9 %
  DBP, mmHg: Post-drug, % change from morphine (cumulative): −13.9 ± 2.4*^,† %
  HR/MAP, mmHg/beats/min: Post-drug, % change from morphine (cumulative): +53.3 ± 13.7*^,† %
  Heart rate (HR), beats/min: Post-drug % change from morphine (cumulative): +31.2 ± 10.3*^,† %
  MAP, mmHg: Post-drug, % change from morphine (cumulative): −13.2 ± 1.8*^,† %
  SBP, MmHg: Post-drug, % change from morphine (cumulative): −11.3 ± 1.6*^,† %
freely-moving rats [2]; Tempol 60 mg/kg IV 15 min after morphine 10 mg/kg IV, FIG. 18
  MAP, change elicited by Tempol after morphine: minor short-lived fall
freely-moving rats [2]; [6]
  DBP, mmHg: Post-drug, % change from Pre (cumulative): −19.6 ± 2.0 %
  HR/MAP, mmHg/beats/min: Post-drug, % change from Pre (cumulative): +18.3 ± 3.9*7%
  Heart rate (HR), beats/min: Post-drug, % change from Pre (cumulative): −6.8 ± 3.0*^,† %
  MAP, mmHg: Post-drug, % change from Pre (cumulative): −19.4 ± 1.5*^,† %
  SBP, MmHg: Post-drug % change from Pre (cumulative): −18.8 ± 1.2*^,† %
  DBP, mmHg: Post-drug, % change from morphine (cumulative): −3.2 ± 4.1 %
  HR/MAP, mmHg/beats/min: Post-drug, % change from morphine (cumulative): +43.0 ± 7.1*^,† %
  Heart rate (HR), beats/min: Post-drug % change from morphine (cumulative): +37.0 ± 9.9*^,† %
  MAP, mmHg: Post-drug, % change from morphine (cumulative): −5.6 ± 3.2 %
  SBP, MmHg: Post-drug, % change from morphine (cumulative): −9.1 ± 2.3*^,† %
freely-moving rats [2]; Tempol 100 mg/kg IV 15 min after morphine 10 mg/kg IV, FIG. 18
  MAP, change elicited by Tempol after morphine: prompt and sustained decrease
freely-moving rats [2]; Tempol 60 and 100 mg/kg IV 15 min after morphine 10 mg/kg IV, FIG. 18
  morphine-induced bradycardia, effect of Tempol: prompt and sustained reversal
freely-moving rats [2]; Tempol 60 or 100 mg/kg IV, especially the 100 mg/kg dose, after morphine 10 mg/kg IV, FIG. 20
  heart rate/MAP ratios, change elicited by Tempol after morphine: rapid and sustained increase
[3]
  frequency of breathing (Freq), change elicited by Tempol: minimal changes
  heart rate (HR), change elicited by Tempol: somewhat minor but sustained decreases
  mean (MAP), diastolic (DBP) and systolic (SBP) arterial blood pressures, change elicited by Tempol: pronounced dose-dependent decreases
  tidal volume (TV) and minute ventilation (MV), change elicited by Tempol: somewhat dose-dependent (relatively minor but sustained) increases
  total responses (all time points summed) in MAP, DBP, SBP and HR elicited by Tempol: significant decreases
  total responses (all time points summed) in TV and MV elicited by Tempol: significant increases
freely-moving rats [4]; [7]
  effects of morphine on pH and sO2, effect of Tempol: not reaching significance
  negative effects of morphine on pCO2 and pO2, effect of Tempol: reversed the negative effects
freely-moving rats [4]; Tempol 60 mg/kg IV after morphine 10 mg/kg IV, FIG. 15 top panel
  morphine-induced rise in A-a gradient, effect of Tempol: not affected
freely-moving rats [4]; Tempol 100 mg/kg IV after morphine 10 mg/kg IV, 5 min post-administration, FIG. 15 bottom panel
  A-a gradient, effect of Tempol: pronounced decrease
freely-moving rats [4]; Tempol 100 mg/kg IV after morphine 10 mg/kg IV, FIG. 16
  negative effects of morphine on pH, pCO2, pO2 and sO2, effect of Tempol: sustained reversal

## CN1CC[C@]23c4c5ccc(O)c4O[C@H]2[C@@H](O)C=C[C@H]3[C@H]1C5 [Morphine, morphine]
freely-moving rats [1]; morphine 10 mg/kg IV, FIG. 17
  SpO2, change elicited by morphine: pronounced and long-lasting decrease
freely-moving rats [2]; morphine 10 mg/kg IV, FIG. 18
  MAP, change elicited by morphine: relatively minor initial decreases
  heart rate, change elicited by morphine: substantial decreases
freely-moving rats [2]; morphine 10 mg/kg IV, FIG. 20
  ratio of heart rate/MAP (index of baroreceptor heart rate reflex activity), change elicited by morphine: somewhat minor reductions
freely-moving rats [4]; morphine 10 mg/kg IV, FIG. 14
  pCO2, change elicited by morphine: equally pronounced increases
  pH, pO2 and sO2, change elicited by morphine: pronounced decreases
freely-moving rats [4]; morphine 10 mg/kg IV, FIG. 15
  A-a gradient, change elicited by morphine: rise
